Where two headings read alike, the source gives them in different places.
Assays:
Assay type in all cases: cell-based, Human
Kasumi-1 (KIT N822K) = experiment: In vitro growth inhibition of Kasumi-1 tumor cells (MTT/CCK8); settings: Homo sapiens, Kasumi 1; in vitro growth inhibition (or induction of apoptosis), cells cultured 3 to 5 days, MTT (CCK8); read-out: IC50 Kasumi-1 (KIT N822K)
Text: (§1) Tumor cell lines are an effective model for studying in vitro tumor growth inhibition. In the present invention, a representative tumor cell line was selected to determine the cell growth inhibition activity of the present compound. All cell lines used were from ATCC, DSMZ, and cell banks of the Chinese Academy of Sciences. Cell culture conditions and methods were in accordance with the requirements of each cell line. Cells were subcultured in vitro for no more than 3 generations each time, and as required, single-clone purification and identification of cell lines could be carried out.
(§2) The cell culture media used were RPMI1640 (Gibco), DMEM (Gibco), MEM (Gibco), L15 (Gibco), IMDM (Gibco), McCOY'S5A, and William's (Gibco). 5-20% fetal bovine serum (Gibco), 1% double antibiotic, 2 mM glutamine, or 1 mM sodium pyruvate were added. The names, species, major gene characteristics, culture media and cell sources of the cell lines used are shown in table 1, wherein “amp” refers to gene amplification. “+++” refers to gene overexpression. The main genetic characteristics of cells were obtained from the COSMIC Cell Lines Project and related research papers, respectively.
(§3) Adherent cells were digested with 0.25% trypsin-EDTA (Gibco). Suspension culture cells were collected by centrifugation (1700 rpm, 3 minutes). The supernatant was discarded and the cells were counted. According to each cell growth cycle, different concentrations of cells were prepared (5˜10×10^4 cells per ml), and inoculated to 96-well plates (Corning), with 100 μl per well, and incubated overnight at 37° C., 5% CO2. The next day, the test compound was added to the cultured cells (2 wells in parallel). The final concentration of the solvent was less than 1/1,000. The cells were further cultured for 3 to 5 days and assayed by MTT.
(§4) The compound was stored at a concentration of 10 mM at −20° C. and diluted to 2- or 10-fold series prior to use. BGJ398 and AC220 were synthesized according to the methods of WO2006420A1 and US2007232604A1, respectively.
(§5) The adherent cells were taken out from the cell culture medium, and immediately added to a freshly prepared complete medium containing 10% CCK8 (5% FBS), 100 ul per hole. The suspended cells were directly added to a CCK8 reagent until reaching a final concentration of 10% and cultured for 1 to 4 hours.
(§6) T=optical density of drug-treated cell wells−optical density of blank control wells; T0=optical density of cell wells before drug treatment−optical density of blank control wells; C=optical density of solvent control wells−optical density of blank control wells. […] The experiments were repeated 1 to 3 times and a statistical analysis of data was conducted.

Karpas 299 (NPM-ALK) = experiment: In vitro growth inhibition of Karpas 299 tumor cells (MTT/CCK8); settings: Homo sapiens
Text: as §1, §2, §3, §4, §5, §6

MOLM-13 (FLT3-ITD) = experiment: In vitro growth inhibition of MOLM-13 tumor cells (MTT/CCK8); settings: Homo sapiens
Text: as §1, §2, §3, §4, §5, §6

KATO III (FGFR2 amp) = experiment: In vitro growth inhibition of KATO III tumor cells (MTT/CCK8); settings: Homo sapiens, KATO III; in vitro growth inhibition (or induction of apoptosis), cells cultured 3 to 5 days, MTT (CCK8); read-out: IC50 KATO III (FGFR2 amp)
Text: as §1, §2, §3, §4, §5, §6

H1703 (PDGFRa amp) = experiment: In vitro growth inhibition of H1703 tumor cells (MTT/CCK8); settings: Homo sapiens, NCI-H1703; in vitro growth inhibition (or induction of apoptosis), cells cultured 3 to 5 days, MTT (CCK8); read-out: IC50 H1703 (PDGFRa amp)
Text: as §1, §2, §3, §4, §5, §6

H1581 (FGFR1 amp) = experiment: In vitro growth inhibition of H1581 tumor cells (MTT/CCK8); settings: Homo sapiens, NCI-H1581; in vitro growth inhibition (or induction of apoptosis), cells cultured 3 to 5 days, MTT (CCK8); read-out: IC50 H1581 (FGFR1 amp)
Text: as §1, §2, §3, §4, §5, §6

KCL-22 (BCR-ABL) = experiment: In vitro growth inhibition of KCL-22 tumor cells (MTT/CCK8); settings: Homo sapiens, KCL-22; in vitro growth inhibition (or induction of apoptosis), cells cultured 3 to 5 days, MTT (CCK8); read-out: IC50 KCL-22 (BCR-ABL)
Text: as §1, §2, §3, §4, §5, §6

Hep3B2 (FGFR3/4+++) = experiment: In vitro growth inhibition of Hep3B2 tumor cells (MTT/CCK8); settings: Homo sapiens, Hep3B; in vitro growth inhibition (or induction of apoptosis), cells cultured 3 to 5 days, MTT (CCK8); read-out: IC50 Hep3B2 (FGFR3/4+++)
Text: as §1, §2, §3, §4, §5, §6

[1] = KARPAS-299, in vitro growth inhibition (or induction of apoptosis), cells cultured 3 to 5 days, MTT (CCK8), read-out: IC50 Karpas 299 (NPM-ALK)
[2] = MOLM-13, in vitro growth inhibition (or induction of apoptosis), cells cultured 3 to 5 days, MTT (CCK8), read-out: IC50 MOLM-13 (FLT3-ITD)

SMILES	IC50 (Kasumi-1 (KIT N822K)) [nM]	IC50 (Karpas 299 (NPM-ALK); [1]) [nM]	IC50 (MOLM-13 (FLT3-ITD); [2]) [nM]	IC50 (KATO III (FGFR2 amp)) [nM]	IC50 (H1703 (PDGFRa amp)) [nM]	IC50 (H1581 (FGFR1 amp)) [nM]	IC50 (KCL-22 (BCR-ABL)) [nM]	IC50 (Hep3B2 (FGFR3/4+++)) [nM]	IC50 (Karpas 299 (NPM-ALK); KARPAS-299, read-out: IC50 Karpas 299 (NPM-ALK)) [nM]	IC50 (MOLM-13 (FLT3-ITD); MOLM-13, read-out: IC50 MOLM-13 (FLT3-ITD)) [nM]
CC(C)(C)c1cc(NC(=O)Nc2ccc(-c3cn4c(n3)sc3cc(OCCC5CCOCC5)ccc34)cc2)no1 [AC220, reference compound]	> 1000	> 1000	0.69	> 1000	> 1000	> 1000	> 1000	–	–	–
CC(C)(C)c1cc(NC(=O)Nc2ccc(Oc3ccnc4cc(OCCCN5CCN(CC6CCCCC6)CC5)c(C(N)=O)cc34)cc2Cl)[nH]n1 [Compound 90]	9.47	256	7.54	2.78	–	–	175	101	–	–
COc1cc2nccc(Oc3ccc(NC(=O)Nc4cc(C(C)(C)C)n[nH]4)cn3)c2cc1C(N)=O [Compound 108, 4-{5-[3-(5-tert-butyl-2H-pyrazol-3-yl)-ureido]-pyridin-2-yloxy}-7-methoxy-quinolin-6-carboxamide]	> 1000	> 1000	3.81	31.3	666	146	> 1000	–	–	–
CC(=O)Nc1cc2c(Oc3ccc(NC(=O)Nc4cc(C(C)(C)C)n[nH]4)c(Cl)c3)ccnc2cc1OCCO [Compound 131]	–	–	14.7	11.6	–	19.5	–	–	–	–
CC(=O)Nc1cc2c(Oc3ccc(NC(=O)Nc4cc(C(C)(C)C)n[nH]4)c(Cl)c3)ccnc2cc1OCCN1CCOCC1 [Compound 132, N-[4-{4-[3-(5-tert-butyl-2H-pyrazol-3-yl)-ureido]-3-chloro-phenoxy}-7-(2-morpholin-4-yl-ethoxy)-quinolin-6-yl]-acetamide]	–	–	0.98	1.34	–	3.91	–	–	–	–
COCCOc1cc2nccc(Oc3ccc(NC(=O)Nc4cc(C(C)(C)C)n[nH]4)c(C)c3)c2cc1NC(C)=O [Compound 133, N-[4-{4-[3-(5-tert-butyl-2H-pyrazol-3-yl)-ureido]-3-methyl-phenoxy}-7-(2-methoxy-ethoxy)-quinolin-6-yl]-acetamide]	–	–	1.13	1.56	–	8.04	–	–	–	–
CC(C)(C)c1cc(NC(=O)Nc2ccc(Oc3ccnc4cc(OCCCN5CCOCC5)c(C(N)=O)cc34)cc2Cl)[nH]n1 [Compound 138, 4-{4-[3-(5-tert-butyl-2H-pyrazol-3-yl)-ureido]-3-chloro-phenoxy}-7-(3-morpholin-4-yl-propoxy)-quinolin-6-carboxamide]	–	–	21.3	18.2	–	97.3	–	–	–	–
CC(C)(C)c1cc(NC(=O)Nc2ccc(Oc3ccnc4cc(OCCCN5CCOCC5)c(C(N)=O)cc34)cc2Cl)n(C2CCCC2)n1 [Compound 140, 4-{4-[3-(5-tert-butyl-2-cyclopentyl-2H-pyrazol-3-yl)-ureido]-3-chloro-phenoxy}-7-(3-morpholin-4-yl-propoxy)-quinolin-6-carboxamide]	–	–	17.9	23.7	–	115	–	–	–	–
Cc1ccc(C(=O)Nc2ccc(CN3CCN(C)CC3)c(C(F)(F)F)c2)cc1C#Cc1cnc2cccnn12 [Ponatinib, reference compound]	–	–	–	–	–	–	–	–	798	< 1

Second part, the compound after the results:

IC50 (Kasumi-1 (KIT N822K)) [nM]	IC50 (Karpas 299 (NPM-ALK); [1]) [nM]	IC50 (MOLM-13 (FLT3-ITD); [2]) [nM]	IC50 (KATO III (FGFR2 amp)) [nM]	IC50 (H1703 (PDGFRa amp)) [nM]	IC50 (H1581 (FGFR1 amp)) [nM]	IC50 (KCL-22 (BCR-ABL)) [nM]	IC50 (Hep3B2 (FGFR3/4+++)) [nM]	IC50 (Karpas 299 (NPM-ALK); KARPAS-299, read-out: IC50 Karpas 299 (NPM-ALK)) [nM]	IC50 (MOLM-13 (FLT3-ITD); MOLM-13, read-out: IC50 MOLM-13 (FLT3-ITD)) [nM]	SMILES
191	93	–	0.98	11.9	9.19	46.5	–	–	–	COCCOc1cc2nccc(Oc3ccc(NC(=O)Nc4cc(C(C)(C)C)n[nH]4)c(Cl)c3)c2cc1C(N)=O [Compound 42, 4-{4-[3-(5-tert-butyl-2H-pyrazol-3-yl)-ureido]-3-chloro-phenoxy}-7-(2-methoxy-ethoxy)-quinolin-6-carboxamide]
16.4	216	6.41	1.26	–	–	184	43.1	–	–	CC(=O)N1CCN(CCCOc2cc3nccc(Oc4ccc(NC(=O)Nc5cc(C(C)(C)C)n[nH]5)c(Cl)c4)c3cc2C(N)=O)CC1 [Compound 91, 7-[3-(4-acetyl-piperazin-1-yl)-propoxy]-4-{4-[3-(5-tert-butyl-2H-pyrazol-3-yl)-ureido]-3-chloro-phenoxy}-quinolin-6-carboxamide]
–	–	3.91	0.1	–	2.01	–	–	–	–	COCCOc1cc2nccc(Oc3ccc(NC(=O)Nc4cc(C(C)(C)C)n[nH]4)c(F)c3)c2cc1NC(C)=O [Compound 128, N-[4-{4-[3-(5-tert-butyl-2H-pyrazol-3-yl)-ureido]-3-fluoro-phenoxy}-7-(2-methoxy-ethoxy)-quinolin-6-yl]-acetamide]
–	–	4.88	0.34	–	4.78	–	–	–	–	COCCCOc1cc2nccc(Oc3ccc(NC(=O)Nc4cc(C(C)(C)C)n[nH]4)c(Cl)c3)c2cc1NC(C)=O [Compound 129, N-[4-{4-[3-(5-tert-butyl-2H-pyrazol-3-yl)-ureido]-3-chloro-phenoxy}-7-(3-methoxy-propoxy)-quinolin-6-yl]-acetamide]
–	–	4.96	0.54	–	1.12	–	–	–	–	CC(=O)Nc1cc2c(Oc3ccc(NC(=O)Nc4cc(C(C)(C)C)n[nH]4)c(Cl)c3)ccnc2cc1OCCCN1CCN(C)CC1 [Compound 130, N-{4-{4-[3-(5-tert-butyl-2H-pyrazol-3-yl)-ureido]-3-chloro-phenoxy}-7-[3-(4-methy-piperazin-1-yl)-propoxy]-quinolin-6-yl}-acetamide]
–	–	< 0.05	0.3	–	12.4	–	–	–	–	COCCOc1cc2nccc(Oc3ccc(NC(=O)Nc4cc(C(C)(C)C)nn4C4CC4)cc3F)c2cc1NC(C)=O [Compound 134]
–	–	0.11	0.22	–	19.5	–	–	–	–	COCCOc1cc2nccc(Oc3ccc(NC(=O)Nc4cc(C(C)(C)C)nn4C)cc3Cl)c2cc1NC(C)=O [Compound 135, N-[4-{4-[3-(5-tert-butyl-2-methyl-2H-pyrazol-3-yl)-ureido]-2-chloro-phenoxy}-7-(2-methoxy-ethoxy)-quinolin-6-yl]-acetamide]
–	–	0.05	0.4	–	39	–	–	–	–	COCCOc1cc2nccc(Oc3ccc(NC(=O)Nc4cc(C(C)(C)C)nn4CCN4CCOCC4)cc3F)c2cc1NC(C)=O [Compound 136, N-[4-(4-{3-[5-tert-butyl-2-(2-morpholin-4-yl-ethyl)-2H-pyrazol-3-yl]-ureido}-2-fluoro-phenoxy)-7-(2-methoxy-ethoxy)-quinolin-6-yl]-acetamide]
–	–	0.34	1.21	–	41.2	–	–	–	–	COCCOc1cc2nccc(Oc3ccc(NC(=O)Nc4cc(C(C)(C)C)nn4CCN4CCOCC4)cc3Cl)c2cc1NC(C)=O [Compound 137, N-[4-(4-{3-[5-tert-butyl-2-(2-morpholin-4-yl-ethyl)-2H-pyrazol-3-yl]-ureido}-2-chloro-phenoxy)-7-(2-methoxy-ethoxy)-quinolin-6-yl]-acetamide]
–	–	9.87	1.14	–	3.44	–	–	–	–	CN1CCN(CCCOc2cc3nccc(Oc4ccc(NC(=O)Nc5cc(C(C)(C)C)nn5C5CCCC5)c(Cl)c4)c3cc2C(N)=O)CC1 [Compound 139]

From patent publication US10800741B2 (ANCUREALL PHARMACEUTICAL (SHANGHAI) CO., LTD., priority 2017, dated 2020)
